Test systems include Hs-578T; IGROV-1; A549; MCF7; HT-29; MDA-MB-435; 786-0; MDA-N; SF-295; CAKI-1; PC-3; M14; NCI-H460; TK-10; HOP-62; Malme-3M; A498; SK-MEL-2; HCC 2998.
Holding throughout (assay): inhibition of tumour cell growth, NCI panel, 48 h

Structures are written as SMILES.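 All cell lines were grown in 96-well plates and treated with compound for 48 hours. GI50 = concentration required for 50% inhibition of growth.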 The source made the active and inactive calls. No stated cut-off is given here; in the data, active = GI50 up to about 1.1 µM and inactive = higher.

This note sets out measurements from ChEMBL document CHEMBL1201862, “PubChem BioAssay data set” (2004).

As for `Cc1ccc(C2=Nc3c(c(C)nn3-c3ccccc3)N=C(C(=O)O)C2)cc1`, the GI50 in the assay on Hs-578T, in the assay with IGROV-1, with A549, with MCF7, in the assay with HT-29 and with MDA-MB-435 was > 10 µM (inactive) each time. For the same molecule, the GI50 in the assay on 786-0, in the assay with MDA-N, in the assay with SF-295, with CAKI-1, in the assay with PC-3 and in the assay with M14 was > 10 µM (inactive) in each case. The GI50 with NCI-H460, in the assay on TK-10, in the assay on HOP-62, with Malme-3M, in the assay with A498 and in the assay with SK-MEL-2 was > 10 µM (inactive) throughout. The GI50 in the assay on HCC 2998 is > 10 µM (inactive).

As to `COc1ccc(COCC[C@H](C)OC2OC(CO[Si](C)(C)C(C)(C)C)C(O)C(O)C2O)cc1` (stereo not given in full), the GI50 in the assay on Hs-578T, with IGROV-1, with A549, with MCF7, with HT-29 and in the assay with MDA-MB-435 was > 100 µM (inactive) throughout. The GI50 in the assay with 786-0 is > 100 µM (inactive); in the assay with MDA-N, > 100 µM (inactive); in the assay on SF-295, > 100 µM (inactive); with CAKI-1 it was > 100 µM (inactive); in the assay on PC-3, 72.9 µM (inactive); with M14, > 100 µM (inactive). Further, the GI50 with NCI-H460, with TK-10, in the assay with HOP-62, with Malme-3M, in the assay on A498 and in the assay with SK-MEL-2 was > 100 µM (inactive) throughout. Also, the GI50 in the assay with HCC 2998 is > 100 µM (inactive).

Take `COC(=O)c1sc2c(c1C(=O)OC)/C(=N/c1ccc(OC)cc1)S/C2=N\c1ccc(OC)cc1`: the GI50 in the assay with Hs-578T is 1.5 µM (inactive); with IGROV-1 it was 1.2 µM (inactive); in the assay on A549, 1.31 µM (inactive); in the assay with MCF7 it was 1.08 µM (active); with HT-29, 0.522 µM (active); in the assay with MDA-MB-435 it was 0.785 µM (active). In addition, the GI50 in the assay with 786-0 is 0.426 µM (active); in the assay with MDA-N it was 1.15 µM (inactive); in the assay with SF-295, 1.68 µM (inactive); in the assay with CAKI-1 it was 2.05 µM (inactive); with PC-3, 0.462 µM (active); in the assay with M14 it was 1.45 µM (inactive). Also, the GI50 in the assay on NCI-H460 was 1.33 µM (inactive); in the assay with TK-10, 1.62 µM (inactive); in the assay with HOP-62, 0.789 µM (active); in the assay on Malme-3M it was 1.74 µM (inactive); with A498, 1.65 µM (inactive); in the assay on SK-MEL-2, 0.624 µM (active). In the assay with HCC 2998, the GI50 is 1.69 µM (inactive).

As for `COC(=O)c1cc2ccc(OC(C)=O)c(OC(C)=O)c2cn1`, the GI50 with Hs-578T is > 10 µM (inactive); in the assay with IGROV-1, 18.6 µM (inactive); with A549, 21.2 µM (inactive); in the assay on MCF7, 2.79 µM (inactive); in the assay with HT-29 it was 23.9 µM (inactive); in the assay on MDA-MB-435, 1.73 µM (inactive). Moreover, the GI50 is 18.5 µM (inactive) in the assay with 786-0; 1.5 µM (inactive) in the assay on MDA-N; 4.95 µM (inactive) in the assay on SF-295; 20.8 µM (inactive) with CAKI-1; 20.7 µM (inactive) in the assay on PC-3; 19 µM (inactive) in the assay with M14. The GI50 was 21.1 µM (inactive) in the assay with NCI-H460; 20.6 µM (inactive) with TK-10; 25.5 µM (inactive) with HOP-62; 8.07 µM (inactive) in the assay on Malme-3M; 14 µM (inactive) in the assay on A498; 18.3 µM (inactive) in the assay on SK-MEL-2. Besides, in the assay on HCC 2998, the GI50 is 20.8 µM (inactive).

With `O=C(O)CC1NCc2cc3ccccc3nc21` (stereo not given), the GI50 with Hs-578T, in the assay with IGROV-1, with A549, with MCF7, with HT-29 and in the assay with MDA-MB-435 was > 100 µM (inactive) each time. In addition, the GI50 in the assay with 786-0, in the assay on MDA-N, in the assay on SF-295, in the assay on CAKI-1, in the assay with PC-3 and with M14 was > 100 µM (inactive) throughout. Further, the GI50 in the assay with NCI-H460, in the assay on TK-10, in the assay with HOP-62, with Malme-3M, in the assay on A498 and in the assay with SK-MEL-2 was > 100 µM (inactive) each time. Moreover, the GI50 in the assay with HCC 2998 is > 100 µM (inactive).

Consider `CC(C)C(N)(C(=O)O)c1ccccc1` (stereo not given), for which the GI50 with Hs-578T, in the assay on IGROV-1, with A549, with MCF7, in the assay on HT-29 and in the assay on MDA-MB-435 was > 100 µM (inactive) throughout. The GI50 in the assay with 786-0, in the assay on MDA-N, with SF-295, in the assay with CAKI-1, in the assay with PC-3 and in the assay with M14 was > 100 µM (inactive) each time. The GI50 in the assay with NCI-H460, in the assay on TK-10, in the assay on HOP-62, with Malme-3M, in the assay with A498 and in the assay with SK-MEL-2 was > 100 µM (inactive) in each case. For the same molecule, the GI50 in the assay with HCC 2998 was > 100 µM (inactive).

Turning to `O=[N+]([O-])c1ccc2c(c1)N=C1OC(c3c[nH]c4ccc(COc5ccccc5)cc34)C(O)=C1N2` (stereo not given), the GI50 was > 100 µM (inactive) in the assay with Hs-578T; > 100 µM (inactive) with IGROV-1; > 100 µM (inactive) in the assay with A549; 55 µM (inactive) in the assay with MCF7; > 100 µM (inactive) in the assay with HT-29; > 100 µM (inactive) with MDA-MB-435. The GI50 with 786-0 was 53.8 µM (inactive); in the assay with MDA-N, > 100 µM (inactive); with SF-295, 47.6 µM (inactive); in the assay with CAKI-1, > 100 µM (inactive); in the assay on PC-3, > 100 µM (inactive); in the assay with M14, > 100 µM (inactive). The GI50 was > 100 µM (inactive) with NCI-H460; 59.2 µM (inactive) in the assay on TK-10; 60.3 µM (inactive) with HOP-62; > 100 µM (inactive) in the assay on Malme-3M; > 100 µM (inactive) with A498; > 100 µM (inactive) with SK-MEL-2. Further, the GI50 in the assay on HCC 2998 was 21.2 µM (inactive).

Turning to `CC1(C)OC2CN(C(=O)OCc3ccccc3)C(CO)C2O1` (stereo not given), the GI50 in the assay with Hs-578T, with IGROV-1, in the assay with A549, in the assay on MCF7, in the assay with HT-29 and in the assay on MDA-MB-435 was > 100 µM (inactive) throughout. In addition, the GI50 with 786-0, in the assay with MDA-N, in the assay on SF-295, in the assay with CAKI-1, with PC-3 and in the assay with M14 was > 100 µM (inactive) throughout. Further, the GI50 with NCI-H460, in the assay on TK-10, with HOP-62, in the assay with Malme-3M, in the assay on A498 and in the assay with SK-MEL-2 was > 100 µM (inactive) each time. Besides, the GI50 in the assay with HCC 2998 was > 100 µM (inactive).

On to `CC(C)c1nc2cc(C(F)(F)F)ccc2[nH]c1=O`, for which the GI50 in the assay with Hs-578T is 3.4 µM (inactive); in the assay with IGROV-1, > 100 µM (inactive); in the assay with A549, 53.6 µM (inactive); with MCF7 it was 85.9 µM (inactive); in the assay on HT-29, 72.1 µM (inactive); in the assay with MDA-MB-435 it was > 100 µM (inactive). Further, the GI50 is 66.7 µM (inactive) in the assay on 786-0; > 100 µM (inactive) in the assay with MDA-N; > 100 µM (inactive) with SF-295; 72.6 µM (inactive) with CAKI-1; 77.8 µM (inactive) with PC-3; > 100 µM (inactive) in the assay on M14. In addition, the GI50 in the assay on NCI-H460 was > 100 µM (inactive); in the assay with TK-10 it was 70.6 µM (inactive); in the assay with HOP-62 it was 79.8 µM (inactive); in the assay on Malme-3M, > 100 µM (inactive); in the assay on A498, 61.9 µM (inactive); with SK-MEL-2, 62.1 µM (inactive). Moreover, the GI50 with HCC 2998 is > 100 µM (inactive).

For the molecule `COc1cc2c(cc1OCCCCOc1cc3c(cc1OC)C(=O)N1CCC[C@H]1C(=O)N3)N=C[C@@H]1CCCN1C2=O`, the GI50 in the assay with Hs-578T is 10.3 µM (inactive); in the assay on IGROV-1, 8.57 µM (inactive); with A549, 18.3 µM (inactive); with MCF7, 2.72 µM (inactive); in the assay with HT-29, 16.6 µM (inactive); with MDA-MB-435, 4.2 µM (inactive). Further, the GI50 in the assay with 786-0 was 13.2 µM (inactive); with MDA-N it was 7.28 µM (inactive); in the assay with SF-295, 12.5 µM (inactive); in the assay with CAKI-1, 11.6 µM (inactive); with PC-3, 6.05 µM (inactive); in the assay with M14, 12.9 µM (inactive). For the same molecule, the GI50 with NCI-H460 is 15.8 µM (inactive); in the assay on TK-10, 12.9 µM (inactive); in the assay with HOP-62 it was 10.9 µM (inactive); with Malme-3M it was 9.79 µM (inactive); in the assay on A498, 6.71 µM (inactive); in the assay on SK-MEL-2 it was 5.57 µM (inactive). Moreover, in the assay on HCC 2998, the GI50 is 11.7 µM (inactive).
